Results on six molecules are retold here after US9315531B2, “Titanocene-gold derivatives comprising thiolato ligands” (Research Foundation of the City University of New York, priority 2014, dated 2016).

Where only a bound is given, the exact number is not on record here.

A short description of data set [1]: Solubility in DMSO/aqueous mixtures. Format: physicochemical. The following applies: at micromolar concentrations. An excerpt: (§1) Both compound 2 and compound 3 were less acidic than titanocene dichloride and were soluble in DMSO/water, DMSO/PBS and DMSO/media (1:99) mixtures at micromolar concentrations. These compounds were unusually stable methyl-containing titanocene moieties that were stable as solids at room temperature, while exposed to air in CDCl3 solution for at least five days.

Data set [2] deals with plasmid pBR322 DNA. Kind of data set: Electrophoresis mobility shift assay. The format is binding. The following applies: metal/DNAbp ratios 0.25-2.0, 37° C., 20 h.
Description: Agarose gel electrophoresis assays were performed whereby decreased electrophoretic mobility of both forms were taken as evidence of metal-DNA binding.
Mobility Shift Assay: 10 μL aliquots of pBR322 plasmid DNA (20 μg/mL) in buffer (5 mM Tris/HCl, 50 mM NaClO4, pH=7.39) were incubated with different concentrations of the compounds (2, 3, 4, 5), and titanocene dichloride) (in the range 0.25 and 4.0 metal complex:DNA bp) at 37° C. for 20 h in the dark. Samples of free DNA and cisplatin-DNA were prepared as controls. After the incubation period, the samples were loaded onto the 1% agarose gel. The samples were separated by electrophoresis for 1.5 h at 80 V in Tris-acetate/EDTA buffer (TAE). Afterwards, the gel was stained for 30 min with a solution of GelRed nucleic acid stain.
Data set [3] in a line: Stability in solution (DMSO-d6, CDCl3, DMSO/PBS). Format: physicochemical.
Description: as §1

Data set [4] has as its system RPTC. Kind of data set: Cell viability assay (XTT), RPTC. Format: cell-based. As to conditions: 72 h incubation; human renal proximal tubular cells. The source says: (§2) Cell Culture: Human renal cell carcinoma lines A498, Caki-1 and UO31, as well as the human prostate carcinoma cell lines DU145 and PC3 were newly obtained for these studies from the American Type Culture Collection (ATCC) (Manassas, Va., USA) and cultured in Roswell Park Memorial Institute (RPMI-1640) (Mediatech Inc., Manassas, Va.) media containing 10% fetal bovine serum (FBS, Life Technologies, Grand Island, N.Y.), 1% Minimum Essential Media (MEM) nonessential amino acids (NEAA, Mediatech) and 1% penicillin-streptomycin (PenStrep, Mediatech). HEK-293T cells were newly purchased from ATCC (Manassas, Va., USA) and maintained in Dulbecco's modified Eagle's medium (DMEM) (Mediatech) supplemented with 10% FBS, 1% NEAA and 1% PenStrep. Normal human renal epithelial cells (RPTC) were purchased from Lifeline Cell Technology (Lifeline Cell Technology, Frederick, Md., USA) and maintained in Lifeline's Renal Life Medium from Lifeline Cell Technology supplemented with 2.4 mM L-glutamine, 5 μg/mL rh insulin, 1.0 nM epinephrine, 10 nM triiodothyronine, 0.1 μg/mL hydrocortisone hemisuccinate, 10 ng/mL rhEGF, 0.50% FBS, 5 μg/mL transferrin PS. All cells were cultured at 37° C. and 5% CO2 in a humidified incubator.
Cell Viability Assay: Cells were seeded at a concentration of 5000 cells/90 μl per well of either RPMI or DMEM without phenol red and without antibiotics, supplemented with 10% FBS and 2 mM L-glutamine into tissue culture grade 96-well flat bottom microplates (BioLite Microwell Plate, Fisher Scientific, Waltham, Mass., USA) and grown for 24 h at 37° C. in a humidified incubator. Afterwards, the intermediate dilutions of the compounds were added to the wells (10 μL) to obtain a final concentration ranging from 0.1 to 200 μM, and the cells were incubated for 24 h or 72 h. […] The optical absorbance of each well in a 96-well plate was quantified using BioTek ELx808 absorbance microplate reader (BioTek Winooski, Vt.) set at 450 nm wavelength. The percentage of surviving cells was calculated from the ratio of absorbance of treated to untreated cells.
(In general: Formazan colour is commonly taken as a measure of viable cells.)

For data set [5], the system named is Caki-1. Kind of data set: Cell viability assay (XTT), Caki-1. Format: cell-based, human. As to conditions: 72 h incubation.
Description: as §2
The optical absorbance of each well in a 96-well plate was quantified using BioTek ELx808 absorbance microplate reader (BioTek Winooski, Vt.) set at 450 nm wavelength. The percentage of surviving cells was calculated from the ratio of absorbance of treated to untreated cells.

Data set [6] concerns HEK-293T. Kind of data set: Cell viability assay (XTT), HEK-293T. Format: cell-based. The following applies: 72 h incubation; non-tumorigenic human embryonic kidney cell line.
Description: HEK-293T cells were newly purchased from ATCC (Manassas, Va., USA) and maintained in Dulbecco's modified Eagle's medium (DMEM) (Mediatech) supplemented with 10% FBS, 1% NEAA and 1% PenStrep. […] All cells were cultured at 37° C. and 5% CO2 in a humidified incubator.
The test system of data set [7] is TrRx in human breast MCF-7 cancer cells. As to conditions: 4 μM; cited from earlier work.
Data set [8] relates to TrRx in human ovarian A2780 cancer cells. As to conditions: 10 μM; cited from earlier work.
Data set [9] deals with MAPKAPK3. Kind of data set: Protein kinase expression in Caki-1 whole cell lysates (Western blot), MAPKAPK3. Format: cell-based, human. As to conditions: Caki-1, by 12 hours post-treatment. For orientation: In western blotting, separated proteins are transferred to a membrane and probed.
Description: The Caki-1 cells were then lysed and a Western blot analysis was performed with anti-MAPKAPK-3 antibody. Blots were probed with anti-β-Actin antibody as a control for protein loading.
Cell lysis and immunoblotting: Caki-1 cells were seeded into 10-cm dishes at a density of 2.2×10^6 and incubated for 24 hours. […] After microcentrifuging for 5 minutes at 4° C., pellets were treated with ice-cold lysis buffer with cell extraction buffer (BioSource, Camarillo, Calif.) containing 0.1% protease inhibitors and 1% phosphatase inhibitors cocktail (Fisher Scientific, Pittsburgh, Pa.) for 10 minutes, then sonicated for 10 seconds three times, and placed on ice. The lysed cells were centrifuged at 10,000×g at 4° C. for 10 minutes to remove the pellets representing the insoluble cell fraction.
The protein concentration was determined with BCA protein dye reagent (Pierce, Fisher Scientific Pittsburgh, Pa.). […]
The target in data set [10] is T1, isolated TrRx (Homo sapiens, UniProt Q16881).
T1 sequence (Q16881 151-649 limits assumed): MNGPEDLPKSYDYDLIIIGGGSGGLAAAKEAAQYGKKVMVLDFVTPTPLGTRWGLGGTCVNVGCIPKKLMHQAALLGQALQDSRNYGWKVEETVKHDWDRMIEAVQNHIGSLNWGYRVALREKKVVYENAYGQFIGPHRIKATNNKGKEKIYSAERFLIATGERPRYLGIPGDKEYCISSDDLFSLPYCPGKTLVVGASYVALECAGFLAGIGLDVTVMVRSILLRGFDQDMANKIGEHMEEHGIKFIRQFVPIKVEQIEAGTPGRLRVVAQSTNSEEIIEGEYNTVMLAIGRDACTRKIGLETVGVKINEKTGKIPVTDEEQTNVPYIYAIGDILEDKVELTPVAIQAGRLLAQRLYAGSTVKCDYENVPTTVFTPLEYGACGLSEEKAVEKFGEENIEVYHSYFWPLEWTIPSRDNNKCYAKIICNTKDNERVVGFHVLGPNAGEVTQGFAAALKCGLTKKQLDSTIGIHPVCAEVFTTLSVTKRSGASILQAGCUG
The following applies: isolated enzyme; read-out: concentration inhibiting 50% of the enzymatic activity of isolated TrRx; cited from earlier work.

The test system of data set [11] is thioredoxin reductase.
Description: After 5, 12 or 24 hours of treatment incubation cells were washed three times in PBS, and lysed by douncing using scrapers and sheer force though syringe with a 34 gauge needle in assay buffer (Abeam Thioredoxin Reductase Assay kit, ab83463) added to 1 mM protease inhibitor cocktail (Abeam, ab65621). The lysates were centrifuged at 10,000×g for 15 minutes at 4° C. to isolate insoluble material. The total protein concentrations of soluble lysates were measured using the BCA Protein Assay (Life Technologies). The soluble lysates were incubated for 20 minutes in assay buffer with a proprietary thioredoxin reductase specific inhibitor before adding a specific substrate, DTNB (5, 5′-dithiobis(2-nitrobenzoic) acid), and measuring activity at 1 minute intervals for 30 minutes using the BioTek fluorescence microplate reader (BioTek U.S., Winooski, Vt.) set at =412 nm. Lysates were tested in duplicate. TrxR activity was calculated based on the linear amount of TNB produced per minute per mg of total protein and corrected for background activity from enzymes other than TrxR in the lysates.

As to “[(η-C5H5)2TiMe(μ-mba)Au(MPPF)] [Compound 3]”, the “solubility in DMSO/water, DMSO/PBS and DMSO/media (1:99) mixtures” value in [1] was “soluble”. The “effect on electrophoretic mobility of plasmid DNA forms” value (“effect on electrophoretic mobility” below) in [2] is listed as “did not affect the mobility”. Also, in [3] (DMSO-d6), the “half-life in DMSO-d6” value is listed as “thirty-two”. In addition, the “half-life fold larger than corresponding compound 6 / compound 7” value in data set [3] (DMSO-d6, same solvent) was “sixty-four”. For the same molecule, the “UV-vis spectra over time” value in data set [3] (micromolar concentration in 1:99 DMSO/PBS, 23 h, physiological pH) is “did not change over time”. In addition, the IC50 amounted to 3.76 ± 0.21 µM in data set [4], 4.11 ± 0.64 µM in data set [5] and 3.09 ± 0.003 µM in [6].

For the molecule `COc1ccc(C[C]2([Ti+2][C]3(Cc4ccc(OC)cc4)C=CC=C3)C=CC=C2)cc1.[Cl-].[Cl-]` [Titanocene Y, reference compound], the IC50 in data set [5] is 29.4 ± 4.18 µM; in [6] it was above 200 µM.

Take `CC(=O)OC[C@H]1O[C@@H]([S-])[C@H](OC(C)=O)[C@@H](OC(C)=O)[C@@H]1OC(C)=O.CCP(CC)CC.[Au+]` [Auranofin]: in data set [7], the “inhibition of total TrRx activity in MCF-7 cells” value is 18%. In addition, the “inhibition of total TrRx activity in A2780 cells” value in data set [8] is 30%. The IC50 in data set [5] was 3.08 ± 0.13 µM; in data set [10], 0.02 µM; in data set [11] (read-out: IC50 thioredoxin reductase in Caki-1 cells, after twelve hours) it was 0.61 µM. Further, the “expression of MAPKAPK3” value in data set [9] was “failed to down-regulate”. Moreover, the “inhibition of thioredoxin reductase activity” value in data set [11] (Caki-1 cells, 5 μM, five hour incubation) was found to be 74.1%.

On to `N.N.[Cl][Pt][Cl]` [Cisplatin, reference compound], for which the “effect on electrophoretic mobility” value in data set [2] was “decreased mobility of the CCC form and increased mobility of the OC form”. Further, the figures for the IC50 in data set [5] and in data set [6] were 29 ± 4.11 µM and 3.27 ± 0.13 µM, respectively.

Regarding `[Cl-].[Cl-].[Ti+4].c1cc[cH-]c1.c1cc[cH-]c1` [[(π-C5H5)2TiCl2], reference compound], the IC50 in [5] and in [6] was above 200 µM throughout.

Regarding [Au(Hmba)(MPPF)] [Precursor 5], the “effect on electrophoretic mobility” value in data set [2] was “did not affect the mobility”. The IC50 in data set [4] came to 3.78 ± 0.13 µM; in data set [5], 3.6 ± 0.342 µM; in data set [6], 3 ± 0.07 µM.
